US8852556B2, “Animal model for evaluating vasomotor response in vivo” (Janssen Research & Development LLC, priority 2008, dated 2014)

Columns and labels:
[1] = tested on: central ear artery of a rabbit; test: Rabbit central ear artery (CEA) vasomotor response, lumen diameter and area by ultrasonic imaging; assay type: in vivo; details: for CEA lumen area after norepinephrine and acetylcholine (acetylcholine-induced vasodilation response) / CEA lumen diameter after norepinephrine and acetylcholine (acetylcholine-induced vasodilation response): norepinephrine-preconstricted CEA; for CEA lumen area after norepinephrine and acetylcholine (acetylcholine-induced vasodilation response): vehicle group 0.6 mm^2; for CEA lumen diameter after norepinephrine and acetylcholine (acetylcholine-induced vasodilation response): vehicle group 0.8 mm
Protocol: A group of six rabbits was anesthetized with a mixture of ketamine (50 mg/kg)/xylazine ([…]) administered intramuscularly and placed on a warming pad to maintain body temperature. Rabbit ear pinnae were shaved and depilitated using an over-the-counter depilatory agent. A segment of about 2 cm of the dorsal surface over the CEA on the right ear was coated with warmed ultrasonic gel. The baseline diameter and area of the rabbit's CEA were evaluated using a 23.5 MHz ultrasonic probe (model RMV 708). The images were recorded on a VISUALSONICS VEVO 600 system where the CEA lumen diameters and areas were subsequently measured. The vessel lumen diameter and area were expressed as mean and standard error of the mean (SEM). Norepinephrine and acetylcholine were infused in the contralateral left ear vein through a 27-gauge butterfly needle infusion set connected to an infusion pump. Images were obtained at about 5 minute intervals throughout the infusion periods.
To confirm that acetylcholine-induced vasodilation was NO-dependent, a second group of six rabbits was dosed with either the nitric oxide synthase inhibitor L-NAME (400 μg/mL) mixed in TANG® flavored drinking water (N=3) or TANG® flavored drinking water alone (N=3) for 5 consecutive days. L-NAME, N(G)-nitro-L-arginine-methyl ester, is an arginine derivative that blocks normal nitric oxide-dependent vasodilation. The rabbit CEA were then imaged on day 6. The rabbits were allowed to recover for about one week and then in crossover fashion each group of 3 was given the opposite treatment for 5 days and then imaged on day 6.
(§1) In another group, six adult New Zealand male rabbits (2.5-3.5 kg) were dosed orally (gavage with feeding tube) with the Imwitor/Cremophor/Water vehicle for 4 consecutive days during week 1. The vehicle (10% Imwitor, 20% Cremophor RH40 and 70% water, a light milky compound solution) was given in a total volume of 3 mL/kg per day. On day 4, three hours after oral dosing with vehicle or drug, the rabbits were anesthetized and measured for the vehicle's effect on CEA vessel lumen as described above. After week 1, the rabbits were allowed to recover for 3 days and were then orally dosed with a test compound such as torcetrapib or compound 2 at about 30 mg/kg for 4 consecutive days during week 2. On the 4th day of week 2, rabbit CEA diameter changes in response to test compounds were assessed with infusion of norepinephrine followed by acetylcholine as described above. Rabbits were again allowed to recover for an additional week to allow for drug elimination and were then subjected to daily vehicle dosing and CEA diameter changes in response to test compounds were assessed as described above.
(§2) A series of 5 images (approximately 5 minutes apart) of the CEA were taken and used for baseline lumen diameter (mm) and area (mm^2) measurements, respectively. The adrenergic agonist norepinephrine was slowly infused at about 28 μg per minute and maintained for the duration of the procedure. An infusion of acetylcholine was administered in escalating doses at about 10, 17, 30 and 56 μg/min, each for 15 minutes, in conjunction with the infusion of norepinephrine. The images were collected several times during each infusion period of 15 minutes. After the final acetylcholine and concurrent norepinephrine infusion period, all infusions were terminated and the vessel was allowed to return to its original size. About two mL of blood were sampled from the non-imaged contralateral CEA immediately after the last measurement. All samples were collected into tubes containing EDTA and centrifuged at about 10,000 rpm for 6 minutes. Plasma was kept in −80° C. until analyzed for the concentration of the tested compounds. In addition, blood was taken from a naïve rabbit for generation of a standard drug concentration curve. […]

[2] = Plasma concentration of test compound after oral dosing in rabbits; assay type: in vivo, rabbit; details: 4 hours after the last dose; for concentration at 4 h: male, New Zealand, rabbit, plasma, rabbits, oral about 30 mg/kg for 4 days
Protocol: as §1
as §2, with “All samples were collected into tubes containing EDTA and centrifuged at about 10,000 rpm for 6 minutes.” left out, “compounds.” for “compounds. In addition, blood was taken from a naïve rabbit for generation of a standard drug concentration curve.”

systolic blood pressure = details: patients receiving torcetrapib; cited from earlier work
[3] = oral about 30 mg/kg for 4 days, compared to vehicle

Row | CEA lumen area after norepinephrine and acetylcholine (acetylcholine-induced vasodilation response) ([1]; oral dose 30 mg/kg for 4 days) [mm^2] | CEA lumen diameter after norepinephrine and acetylcholine (acetylcholine-induced vasodilation response) ([1]; oral dose 30 mg/kg for 4 days) | concentration at 4 h [2] [nM] | Compound | effect on acetylcholine-induced vasodilation in norepinephrine-preconstricted CEA [1, 3] | further results
1 | ~0.6 | about 0.8 mm | 2580 ± 670 | O[C@@H](CN1c2cccc(-c3cccc(OC(F)(F)F)c3)c2CC[C@@H]1c1cccc(OC(F)(F)C(F)F)c1)C(F)(F)F [Compound 2, 1,1,1-Trifluoro-3-[2-{3-[(1,1,2,2-tetrafluoroethyl)oxy]phenyl}-5-{3-[(trifluoromethyl)oxy]phenyl}-3,4-dihydroquinolin-1(2H)-yl]propan-2-ol] | does not affect | plasma concentration of compound 2 relative to torcetrapib ([2]; same dose and regimen): approximately 2.5 fold
2 |  |  |  | COC(=O)[C@@H](N)CCCNC(=N)N[N+](=O)[O-] [L-NAME, N(G)-nitro-L-arginine-methyl ester] |  | effect of L-NAME on acetylcholine-induced vasodilation in norepinephrine-preconstricted CEA ([1]; L-NAME 400 μg/mL in drinking water for 5 days, imaged day 6): inhibits this acetylcholine-induced vasodilation
3 |  |  |  | NC[C@H](O)c1ccc(O)c(O)c1 [norepinephrine] |  | CEA lumen area during norepinephrine infusion ([1]; norepinephrine infused at about 28 μg per minute, baseline about 0.6-0.7 mm^2): about 0.2 mm^2; CEA lumen diameter during norepinephrine infusion ([1]; norepinephrine infused at about 28 μg per minute, baseline about 0.8-0.9 mm): about 0.5 mm
4 | 0.2 | about 0.45 mm | ~1010 | CCOC(=O)N1c2ccc(C(F)(F)F)cc2[C@@H](N(Cc2cc(C(F)(F)F)cc(C(F)(F)F)c2)C(=O)OC)C[C@H]1CC [torcetrapib, ethyl (2R,4S)-4-[[3,5-bis(trifluoromethyl)benzyl](methoxycarbonyl)amino]-2-ethyl-6-(trifluoromethyl)-3,4-dihydroquinoline-1(2H)-carboxylate] | inhibits the acetylcholine-induced vasodilation | effect on baseline CEA lumen diameter and area (basal vascular tone) [1, 3]: caused a measurable baseline vasoconstriction; baseline CEA lumen diameter ([1]; oral dose 30 mg/kg for 4 days, prior to norepinephrine or acetylcholine, anesthetized rabbits, vehicle group 0.85 mm): about 0.55 mm; baseline CEA lumen area ([1]; oral dose 30 mg/kg for 4 days, prior to norepinephrine or acetylcholine, vehicle group 0.65 mm^2): about 0.3 mm^2; systolic blood pressure in patients (systolic blood pressure): higher systolic blood pressure
